{"source": "paper PMC3045540", "about": "(Molecular and biochemical parasitology, 2010)", "key": {"[1]": {"target": "LmajFGSK-3 (LmajGSK-3 short Y102F mutant) (Leishmania major, UniProt Q4QE15, Y102F)", "assay": "biochemical", "format": "biochemical, L. major"}, "[2]": {"target": "HsGSK-3β (Homo sapiens, UniProt P49841)", "sequence (P49841 whole entry)": "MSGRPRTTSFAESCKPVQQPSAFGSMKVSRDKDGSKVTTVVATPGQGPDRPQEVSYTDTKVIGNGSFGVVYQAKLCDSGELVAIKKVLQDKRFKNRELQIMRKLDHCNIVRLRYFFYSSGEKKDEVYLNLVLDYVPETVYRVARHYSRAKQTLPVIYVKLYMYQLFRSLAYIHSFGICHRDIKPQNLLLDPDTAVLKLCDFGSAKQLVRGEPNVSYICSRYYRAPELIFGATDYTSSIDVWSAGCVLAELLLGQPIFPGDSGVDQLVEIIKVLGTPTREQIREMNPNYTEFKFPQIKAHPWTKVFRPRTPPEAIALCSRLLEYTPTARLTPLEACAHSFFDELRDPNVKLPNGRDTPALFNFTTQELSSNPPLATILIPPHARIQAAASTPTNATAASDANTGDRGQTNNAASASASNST", "assay": "Kinase-Glo assay, inhibition of human GSK-3β", "format": "biochemical", "settings": "read-out: Mean IC50 (SD), HsGSK-3b; 3.2 μM BioGSP-2, 2 μM ATP, 90 minutes at 30°C"}, "[3]": {"target": "LmajGSK-3 short (Leishmania major, UniProt Q4QE15)", "assay": "biochemical", "design": "species or system L. major"}, "[4]": {"target": "LmajEGSK-3 (LmajGSK-3 short D105E mutant) (Leishmania major, UniProt Q4QE15, D105E)", "assay": "biochemical", "format": "biochemical, L. major"}, "[5]": {"target": "LinfGSK-3 short (Leishmania infantum, UniProt A4HXQ3)", "assay": "biochemical", "format": "biochemical, L. infantum", "settings": "for mode of inhibition of LinfGSK-3 short (velocity at different ATP concentrations): Fig. 3A"}, "[6]": {"target": "TbruGSK-3 short (Trypanosoma brucei brucei, UniProt Q388M1)", "assay": "biochemical", "format": "biochemical, T. brucei"}, "[7]": {"target": "LmajEFGSK-3 (LmajGSK-3 short Y102F and D105E double mutant) (Leishmania major, UniProt Q4QE15, D105E/Y102F)", "assay": "biochemical", "design": "species or system L. major"}, "[8]": {"settings": "read-out: Mean IC50 (SD), LmajFGSK-3, Y102F mutant, 8.2 nM enzyme, 3.2 μM BioGSP-2, 2 μM ATP, 90 minutes at 30°C"}}, "note": "Where two headings read alike, the source gives them in different places."}
{"compound": "N#CCCc1ccc2c(c1)-c1[nH]c3ccc([N+](=O)[O-])cc3c1CC(=O)N2", "note": "[Alster-paullone, 2-cyanoethyl]", "values": [{"measurement": "IC50", "setting": "[1]; [8]", "result": 310, "unit": "nM"}, {"measurement": "IC50", "setting": "[2]", "result": 20, "unit": "nM"}]}
{"compound": "O=C1Nc2ccccc2/C1=C/c1cnc[nH]1", "note": "[Angio-genesis inhibitor]", "values": [{"measurement": "IC50", "setting": "[1]; [8]", "result": 8470, "unit": "nM"}, {"measurement": "IC50", "setting": "[2]", "result": 1620, "unit": "nM"}]}
{"compound": "COc1ccc(CNC(=O)Nc2ncc([N+](=O)[O-])s2)cc1", "note": "[GSK-3β Inhibitor VIII]", "values": [{"measurement": "Mean IC50 (SD), LmajFGSK-3", "setting": "[1]; Y102F mutant, 8.2 nM enzyme, 3.2 μM BioGSP-2, 2 μM ATP, 90 minutes at 30°C", "result": "no activity"}, {"measurement": "Mean IC50 (SD), LmajGSK-3", "setting": "[3]; 8.2 nM enzyme, 3.2 μM BioGSP-2, 2 μM ATP, 90 minutes at 30°C", "result": "no activity"}, {"measurement": "Mean IC50 (SD), LmajEGSK-3", "setting": "[4]; D105E mutant, 8.2 nM enzyme, 3.2 μM BioGSP-2, 2 μM ATP, 90 minutes at 30°C", "result": "no activity"}, {"measurement": "Mean IC50 (SD), LinfGSK-3", "setting": "[5]; 2.8 nM enzyme, 3.2 μM BioGSP-2, 2 μM ATP, 90 minutes at 30°C", "result": "no activity"}]}
{"compound": "O=C1Nc2ccc3ncsc3c2/C1=C/Nc1ccc(S(=O)(=O)Nc2ccccn2)cc1", "note": "[GW8510]", "values": [{"measurement": "IC50", "setting": "[1]; read-out: IC50 value for the LmajGSK-3 short Y102F mutant", "result": 93, "unit": "nM"}, {"measurement": "IC50", "setting": "[1]; [8]", "result": 90, "unit": "nM"}, {"measurement": "effect of mutation D105E of LmajGSK-3 short on sensitivity to inhibition", "setting": "[4]; relative to wild type LmajGSK-3 short", "result": "~2", "unit": "fold"}, {"measurement": "IC50", "setting": "[2]", "result": 20, "unit": "nM"}, {"measurement": "IC50", "setting": "[6]; read-out: IC50 value for TbruGSK-3 short", "result": 21, "unit": "nM"}, {"measurement": "mode of inhibition of LinfGSK-3 short (velocity at different ATP concentrations)", "setting": "[5]", "result": "ATP competitive"}, {"measurement": "IC50", "setting": "[5]; read-out: IC50 value for LinfGSK-3 short", "result": 628, "unit": "nM"}]}
{"compound": "NC1=NC(=O)/C(=C2\\CCNC(=O)c3[nH]c(Br)cc32)N1", "note": "[Hymeni-aldisine, Stylissa dami-cornis, Hymenialdisine]", "values": [{"measurement": "IC50", "setting": "[1]", "result": 16100, "unit": "nM"}, {"measurement": "IC50", "setting": "[3]", "result": 13100, "unit": "nM"}, {"measurement": "IC50", "setting": "[4]", "result": 10400, "unit": "nM"}, {"measurement": "IC50", "setting": "[6]", "result": 3950, "unit": "nM"}, {"measurement": "IC50", "setting": "[7]", "result": 9250, "unit": "nM"}, {"measurement": "IC50", "setting": "[5]", "result": 18200, "unit": "nM"}]}
{"compound": "O=C1Nc2ccc(S(=O)(=O)O)cc2C1=C1Nc2ccccc2C1=NO", "note": "[Indirubin-3'-monoxime-5-sulphonic Acid]", "values": [{"measurement": "IC50", "setting": "[1]; [8]", "result": 930, "unit": "nM"}, {"measurement": "IC50", "setting": "[2]", "result": 60, "unit": "nM"}]}
{"compound": "Cn1cc(C2=C(c3cn(CCCN)c4ccccc34)C(=O)NC2=O)c2ccccc21", "note": "[Ro-31-7549]", "values": [{"measurement": "IC50", "setting": "[1]; [8]", "result": 1080, "unit": "nM"}, {"measurement": "IC50", "setting": "[2]", "result": 4, "unit": "nM"}]}
{"compound": "COc1ccc2c(c1)/C(=C/c1cnc[nH]1)C(=O)N2", "note": "[SU9516]", "values": [{"measurement": "IC50", "setting": "[1]", "result": 1400, "unit": "nM"}, {"measurement": "IC50", "setting": "[3]", "result": 3040, "unit": "nM"}, {"measurement": "IC50", "setting": "[4]", "result": 3150, "unit": "nM"}, {"measurement": "IC50", "setting": "[6]", "result": 590, "unit": "nM"}, {"measurement": "IC50", "setting": "[7]", "result": 1290, "unit": "nM"}, {"measurement": "IC50", "setting": "[5]", "result": 1870, "unit": "nM"}]}
{"compound": "Cdk1/2 Inhibitor III", "values": [{"measurement": "IC50", "setting": "[1]; [8]", "result": 150, "unit": "nM"}, {"measurement": "IC50", "setting": "[2]", "result": 210, "unit": "nM"}, {"measurement": "mode of inhibition of LinfGSK-3 short (velocity at different ATP concentrations)", "setting": "[5]", "result": "ATP competitive"}]}
